Reference: ChEMBL document CHEMBL3808305, “Discovery of fused tricyclic core containing HCV NS5A inhibitors with pan-genotype activity” (Bioorg Med Chem Lett, 2016)

Assays:
[1] = tested on: Hepatitis C virus; test: Antiviral activity against HCV genotype 2a assessed as decrease in HCV replicon RNA replication after 3 days by taqman assay based cell based replicon method; type: functional, organism-based, Hepacivirus hominis; settings: 72 h
[2] = tested on: Hepatitis C virus; test: Antiviral activity against HCV genotype 1a expressing NS5A Y93H mutant assessed as decrease in HCV replicon RNA replication after 3 days by taqman assay based cell based replicon method; type: functional, organism-based, Hepacivirus hominis; settings: subtype 1a, 72 h
[3] = tested on: Hepatitis C virus; test: Antiviral activity against HCV genotype 1a assessed as decrease in HCV replicon RNA replication after 3 days by taqman assay based cell based replicon method; type: functional, organism-based, Hepacivirus hominis; settings: subtype 1a, 72 h
[4] = tested on: Hepatitis C virus; test: Antiviral activity against HCV genotype 1b assessed as decrease in HCV replicon RNA replication after 3 days by taqman assay based cell based replicon method; type: functional, organism-based, Hepacivirus hominis; settings: 72 h
[5] = Clearance in Sprague-Dawley rat at 10 mg/kg, po or 2 mg/kg, iv; type: ADME, organism-based; settings: in vivo
[6] = Oral bioavailability in Sprague-Dawley rat at 10 mg/kg; type: ADME, organism-based; settings: in vivo
[7] = Half life in Sprague-Dawley rat at 10 mg/kg, po or 2 mg/kg, iv; type: ADME, organism-based; settings: in vivo
[8] = tested on: Hepatitis C virus; test: Antiviral activity against HCV genotype 3a assessed as decrease in HCV replicon RNA replication after 3 days by taqman assay based cell based replicon method; type: functional, organism-based, Hepacivirus hominis; settings: 72 h
[9] = AUC in Sprague-Dawley rat at 10 mg/kg, po; type: ADME, organism-based; settings: in vivo
[10] = tested on: Hepatitis C virus; test: Antiviral activity against HCV genotype 1a assessed as decrease in HCV replicon RNA replication after 3 days in presence of 10% FBS by taqman assay based cell based replicon method; type: functional, organism-based, Hepacivirus hominis; settings: subtype 1a, 72 h
[11] = tested on: Hepatitis C virus; test: Antiviral activity against HCV genotype 2a assessed as decrease in HCV replicon RNA replication after 3 days in presence of 10% FBS by taqman assay based cell based replicon method; type: functional, organism-based, Hepacivirus hominis; settings: 72 h
[12] = tested on: Hepatitis C virus; test: Antiviral activity against HCV genotype 1b assessed as decrease in HCV replicon RNA replication after 3 days in presence of 10% FBS by taqman assay based cell based replicon method; type: functional, organism-based, Hepacivirus hominis; settings: 72 h
[13] = AUC in Sprague-Dawley rat at 5 mg/kg, po; type: ADME, organism-based; settings: in vivo
[14] = Clearance in Sprague-Dawley rat at 5 mg/kg, po or 2 mg/kg, iv; type: ADME, organism-based; settings: in vivo
[15] = Oral bioavailability in Sprague-Dawley rat at 5 mg/kg; type: ADME, organism-based; settings: in vivo
[16] = Half life in Sprague-Dawley rat at 5 mg/kg, po or 2 mg/kg, iv; type: ADME, organism-based; settings: in vivo
[17] = tested on: Hepatitis C virus; test: Antiviral activity against HCV genotype 1a expressing NS5A Y93H mutant assessed as decrease in HCV replicon RNA replication after 3 days in presence of 10% FBS by taqman assay based cell based replicon method; type: functional, organism-based, Hepacivirus hominis; settings: subtype 1a, 72 h
[18] = tested on: Hepatitis C virus; test: Antiviral activity against HCV genotype 3a assessed as decrease in HCV replicon RNA replication after 3 days in presence of 10% FBS by taqman assay based cell based replicon method; type: functional, organism-based, Hepacivirus hominis; settings: 72 h
[19] = tested on: Hepatitis C virus; test: Antiviral activity against HCV genotype 1b Con1 assessed as decrease in HCV replicon RNA replication by taqman assay based cell based replicon method; type: functional, organism-based, Hepacivirus hominis; settings: isolate Con1
[20] = tested on: Hepatitis C virus; test: Antiviral activity against HCV genotype 1a H77 expressing NS5A Y93H mutant infected in mouse HB1 cells assessed as decrease in HCV replicon RNA replication by taqman assay; type: functional, organism-based, Hepacivirus hominis; settings: genotype 1a H77, HB1
[21] = tested on: Hepatitis C virus; test: Antiviral activity against HCV genotype 1a H77 infected in mouse HB1 cells assessed as decrease in HCV replicon RNA replication after 3 days by taqman assay; type: functional, organism-based, Hepacivirus hominis; settings: genotype 1a H77, HB1, 72 h
[22] = tested on: Hepatitis C virus; test: Antiviral activity against HCV genotype 2a JFH assessed as decrease in HCV replicon RNA replication by taqman assay based cell based replicon method; type: functional, organism-based, Hepacivirus hominis; settings: subtype 2a JFH
[23] = tested on: Hepatitis C virus; test: Antiviral activity against HCV genotype 3a NC009824 assessed as decrease in HCV replicon RNA replication by taqman assay based cell based replicon method; type: functional, organism-based, Hepacivirus hominis

Row | SMILES | EC50 [1] [nM] | EC50 [2] [nM] | EC50 [3] [nM] | EC50 [4] [nM] | EC50 [8] [nM] | further results
1 | COC(=O)N[C@H](C(=O)N1CCC[C@H]1c1ncc(-c2ccc3c(=O)c4cc(-c5cnc([C@@H]6CCCN6C(=O)[C@@H](NC(=O)OC)C(C)C)[nH]5)ccc4oc3c2)[nH]1)C(C)C | 0.1 | 1730 | 0.01 | 0.002 | – | –
2 | COC(=O)N[C@H](C(=O)N1CCC[C@H]1c1ncc(-c2ccc3c(c2)Oc2ccc(-c4cnc([C@@H]5CCCN5C(=O)[C@@H](NC(=O)OC)C(C)C)[nH]4)cc2C3(C)C)[nH]1)C(C)C | < 0.02 | 130 | 0.02 | 0.005 | 0.3 | clearance [5]: 19 mL/min/kg; bioavailability [6]: 39%; half-life [7]: 1.6 h; AUC [9]: 2.3 µM·h
3 | COC(=O)N[C@H](C(=O)N1CCC[C@H]1c1ncc(-c2ccc3c(c2)C=Nc2cc(-c4cnc([C@@H]5CCCN5C(=O)[C@@H](NC(=O)OC)C(C)C)[nH]4)ccc2O3)[nH]1)C(C)C | – | – | – | – | – | EC50 [10]: 40 nM; EC50 [11]: 55 nM; EC50 [12]: 0.5 nM
4 | C/C=C1/c2ccc(-c3cnc([C@@H]4CCCN4C(=O)[C@@H](NC(=O)OC)C(C)C)[nH]3)cc2Oc2ccc(-c3cnc([C@@H]4CCCN4C(=O)[C@@H](NC(=O)OC)C(C)C)[nH]3)cc21 | 0.03 | 9 | 0.06 | 0.007 | 0.4 | –
5 | COC(=O)N[C@H](C(=O)N1CCC[C@H]1c1ncc(-c2ccc3c(c2)Oc2ccc(-c4cnc([C@@H]5CCCN5C(=O)[C@@H](NC(=O)OC)C(C)C)[nH]4)cc2O3)[nH]1)C(C)C | 0.01 | 16 | 0.01 | 0.009 | – | AUC [13]: 4.5 µM·h; clearance [14]: 6.4 mL/min/kg; bioavailability [15]: 26%; half-life [16]: 1.4 h
6 | COC(=O)N[C@H](C(=O)N1CCC[C@H]1c1ncc(-c2ccc3c(c2)NC(=O)c2cc(-c4cnc([C@@H]5CCCN5C(=O)[C@@H](NC(=O)OC)C(C)C)[nH]4)ccc2O3)[nH]1)C(C)C | – | – | – | – | – | EC50 [10]: 950 nM; EC50 [11]: > 1000 nM; EC50 [12]: 40 nM
7 | COC(=O)N[C@H](C(=O)N1CCC[C@H]1c1ncc(-c2ccc3c(c2)Oc2ccc(-c4cnc([C@@H]5CCCN5C(=O)[C@@H](NC(=O)OC)C(C)C)[nH]4)cc2S3(=O)=O)[nH]1)C(C)C | 0.8 | 2380 | > 1 | 0.06 | 16 | –
8 | CCCC/C=C1/c2ccc(-c3cnc([C@@H]4CCCN4C(=O)[C@@H](NC(=O)OC)C(C)C)[nH]3)cc2Oc2ccc(-c3cnc([C@@H]4CCCN4C(=O)[C@@H](NC(=O)OC)C(C)C)[nH]3)cc21 | 0.05 | 260 | > 0.1 | 0.006 | 0.4 | –
9 | COC(=O)N[C@H](C(=O)N1CCC[C@H]1c1ncc(-c2ccc3c(c2)NC(=O)c2ccc(-c4cnc([C@@H]5CCCN5C(=O)[C@@H](NC(=O)OC)C(C)C)[nH]4)cc2O3)[nH]1)C(C)C | – | – | – | – | – | EC50 [10]: 145 nM; EC50 [11]: 310 nM; EC50 [12]: 0.2 nM
10 | CCC1c2ccc(-c3cnc([C@@H]4CCCN4C(=O)[C@@H](NC(=O)OC)C(C)C)[nH]3)cc2Oc2ccc(-c3cnc([C@@H]4CCCN4C(=O)[C@@H](NC(=O)OC)C(C)C)[nH]3)cc21 (stereo partly drawn) | 0.005 | 24 | 0.02 | 0.004 | 0.07 | –
11 | COC(=O)N[C@H](C(=O)N1CCC[C@H]1c1ncc(-c2ccc3c(C)c4cc(-c5cnc([C@@H]6CCCN6C(=O)[C@@H](NC(=O)OC)C(C)C)[nH]5)ccc4cc3c2)[nH]1)C(C)C | 0.005 | 42 | 0.02 | 0.005 | 0.5 | –
12 | COC(=O)N[C@H](C(=O)N1CCC[C@H]1c1ncc(-c2ccc3nc4cc(-c5cnc([C@@H]6CCCN6C(=O)[C@@H](NC(=O)OC)C(C)C)[nH]5)ccc4cc3c2)[nH]1)C(C)C | 0.04 | 1050 | 0.05 | 0.01 | – | –
13 | COC(=O)N[C@H](C(=O)N1CCC[C@H]1c1ncc(-c2ccc3cc4cc(-c5cnc([C@@H]6CCCN6C(=O)[C@@H](NC(=O)OC)C(C)C)[nH]5)ccc4cc3c2)[nH]1)C(C)C | 0.005 | 87 | 0.006 | 0.001 | 0.06 | clearance [5]: 7.7 mL/min/kg; bioavailability [6]: 46%; half-life [7]: 3 h; AUC [9]: 13 µM·h
14 | COC(=O)N[C@H](C(=O)N1CCC[C@H]1c1ncc(-c2ccc3c(Cl)c4cc(-c5cnc([C@@H]6CCCN6C(=O)[C@@H](NC(=O)OC)C(C)C)[nH]5)ccc4cc3c2)[nH]1)C(C)C | 0.01 | 66 | 0.05 | 0.003 | 0.6 | –
15 | COC(=O)N[C@H](C(=O)N1CCC[C@H]1c1ncc(-c2ccc3nc4cc(-c5cnc([C@@H]6CCCN6C(=O)[C@@H](NC(=O)OC)C(C)C)[nH]5)ccc4nc3c2)[nH]1)C(C)C | 0.1 | 61 | 0.06 | 0.06 | 0.2 | –
16 | COC(=O)N[C@H](C(=O)N1CCC[C@H]1c1ncc(-c2ccc3c(c2)Oc2ccc(-c4cnc([C@@H]5CCCN5C(=O)[C@@H](NC(=O)OC)C(C)C)[nH]4)cc2S3)[nH]1)C(C)C | 0.06 | 21 | 0.04 | 0.002 | 0.3 | AUC [13]: 1.1 µM·h; clearance [14]: 15 mL/min/kg; bioavailability [15]: 25%; half-life [16]: 1.3 h
17 | COC(=O)N[C@H](C(=O)N1CCC[C@H]1c1ncc(-c2ccc3c(c2)Oc2ccc(-c4cnc([C@@H]5CCCN5C(=O)[C@@H](NC(=O)OC)C(C)C)[nH]4)cc2C3C2CC2)[nH]1)C(C)C (stereo partly drawn) | – | – | – | – | – | EC50 [10]: 0.03 nM; EC50 [17]: 46 nM; EC50 [18]: 0.2 nM; EC50 [11]: 0.004 nM; EC50 [12]: 0.004 nM
18 | COC(=O)N[C@H](C(=O)N1CCC[C@H]1c1ncc(-c2ccc3c(c2)Oc2ccc(-c4cnc([C@@H]5CCCN5C(=O)[C@@H](NC(=O)OC)C(C)C)[nH]4)cc2C3C)[nH]1)C(C)C (stereo partly drawn) | 0.004 | – | 0.05 | 0.009 | 0.08 | –
19 | COC(=O)N[C@H](C(=O)N1CCC[C@H]1c1ncc(-c2ccc3c(c2)C=Nc2ccc(-c4cnc([C@@H]5CCCN5C(=O)[C@@H](NC(=O)OC)C(C)C)[nH]4)cc2O3)[nH]1)C(C)C | – | – | – | – | – | EC50 [10]: 220 nM; EC50 [11]: 55 nM; EC50 [12]: 0.06 nM
20 | COC(=O)N[C@H](C(=O)N1CCC[C@H]1c1ncc(-c2ccc3c(c2)Oc2ccc(-c4cnc([C@@H]5CCCN5C(=O)[C@@H](NC(=O)OC)C(C)C)[nH]4)cc2N3c2ccccc2)[nH]1)C(C)C | – | – | – | – | – | EC50 [10]: 5 nM; EC50 [11]: 3 nM; EC50 [12]: 0.008 nM
21 | COC(=O)N[C@H](C(=O)N1CCC[C@H]1c1ncc(-c2ccc3c(c2)Oc2ccc(-c4cnc([C@@H]5CCCN5C(=O)[C@@H](NC(=O)OC)C(C)C)[nH]4)cc2N3C)[nH]1)C(C)C | 0.07 | 70 | 0.09 | 0.007 | 0.3 | clearance [5]: 32 mL/min/kg; bioavailability [6]: 69%; half-life [7]: 1.2 h; AUC [9]: 2.8 µM·h
22 | COC(=O)N[C@H](C(=O)N1CCC[C@H]1c1ncc(-c2ccc3c(c2)C(=O)c2ccc(-c4cnc([C@@H]5CCCN5C(=O)[C@@H](NC(=O)OC)C(C)C)[nH]4)cc2C3=O)[nH]1)C(C)C | 0.7 | 35 | 0.09 | 0.007 | – | –
23 | COC(=O)N[C@H](C(=O)N1CCC[C@H]1c1nc(-c2ccc3c(c2)O[C@@H](c2ccccc2)n2c-3cc3cc(-c4c[nH]c([C@@H]5CCCN5C(=O)[C@@H](NC(=O)OC)C(C)C)n4)ccc32)c[nH]1)C(C)C [ELBASVIR] | – | – | – | – | – | EC50 [19]: 0.003 nM; EC50 [20]: 2 nM; EC50 [21]: 0.004 nM; EC50 [22]: 0.003 nM; EC50 [23]: 0.02 nM
24 | COC(=O)N[C@H](C(=O)N1CCC[C@H]1c1ncc(-c2ccc3c(C#N)c4cc(-c5cnc([C@@H]6CCCN6C(=O)[C@@H](NC(=O)OC)C(C)C)[nH]5)ccc4nc3c2)[nH]1)C(C)C | – | – | – | – | – | EC50 [10]: 0.3 nM; EC50 [11]: 1 nM; EC50 [12]: 0.01 nM
